Experimental findings from patent publication US20260176267A1, “PREPARATION OF IMIDAZOPYRIDINE AND IMIDAZOPYRIDAZINE DERIVATIVES AS NOVEL DIACYLGLYCERIDE O-ACYLTRANSFERASE 2 INHIBITORS” (Merck Sharp & Dohme LLC, priority 2022, published 2026) are described below.

Molecules are shown by their SMILES.

This test has as its target T1, human DGAT2 (hDGAT2) (Homo sapiens, UniProt Q96PD7).
T1 construct: made in house; host or cells: Sf-9 insect cells (baculovirus), membrane fraction
T1 sequence (Q96PD7 1-388): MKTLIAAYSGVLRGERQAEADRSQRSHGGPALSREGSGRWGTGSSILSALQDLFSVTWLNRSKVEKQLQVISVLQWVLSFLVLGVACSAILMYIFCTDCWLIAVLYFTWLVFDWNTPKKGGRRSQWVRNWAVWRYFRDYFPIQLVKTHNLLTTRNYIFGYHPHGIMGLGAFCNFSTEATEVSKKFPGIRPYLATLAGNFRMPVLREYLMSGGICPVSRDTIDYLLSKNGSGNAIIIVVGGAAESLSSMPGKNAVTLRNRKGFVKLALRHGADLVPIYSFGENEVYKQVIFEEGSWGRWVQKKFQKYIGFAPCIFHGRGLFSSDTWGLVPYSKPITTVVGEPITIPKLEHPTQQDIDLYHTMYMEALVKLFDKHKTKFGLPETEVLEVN
In words: DGAT2 Enzymatic Activity Assay. It is filed as biochemical. The settings on record: membrane prep of Sf-9 cells expressing hDGAT2; 13C18-triolein product by LC/MS/MS; 25 μM diolein, 5 μM 13C oleoyl-CoA, rt. The procedure, abridged: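 Membranes from Sf-9 cells expressing untagged human DGAT2 (baculovirus, 48 h) used as enzyme at rt. The product ^13C18-triolein is quantified by LC/MS/MS against a ^13C21-triolein internal standard. Percent inhibition is taken from high and low controls, and IC50 is derived.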

Turning to `Cc1cc2nc(C(=O)NC3(C)CCS(=O)(=O)CC3)c(C)n2nc1Oc1ncc(F)cc1OCC(F)(F)F` [Example 170, 6-[[5-fluoro-3-(2,2,2-trifluoroethoxy)-2-pyridyl]oxy]-3,7-dimethyl-N-(4-methyl-1,1-dioxo-thian-4-yl)imidazo[1,2-b]pyridazine-2-carboxamide], the IC50 – broadly, the midpoint of a concentration-inhibition curve – stood at 15 nM.
With `Cc1cc2nc(C(=O)NC3(C)CCS(=O)(=O)CC3)c(C)n2nc1Oc1ncc(F)cc1OCC(F)F` [Example 171, 6-[[3-(2,2-difluoroethoxy)-5-fluoro-2-pyridyl]oxy]-3,7-dimethyl-N-(4-methyl-1,1-dioxo-thian-4-yl)imidazo[1,2-b]pyridazine-2-carboxamide] the figure was 1.3 nM; with `Cc1cc(Oc2ncc(Cl)cc2OCC(F)F)nn2cc(C(=O)NC3(C)CS(=O)(=O)C3)nc12` [Example 172, 6-[[5-chloro-3-(2,2-difluoroethoxy)-2-pyridyl]oxy]-8-methyl-N-(3-methyl-1,1-dioxo-thietan-3-yl)imidazo[1,2-b]pyridazine-2-carboxamide], 30 nM.
`Cc1cc(Oc2ncc(Cl)cc2OCC(F)F)nn2cc(C(=O)NC3(C)CCS(=O)(=O)CC3)nc12` [Example 173, 6-[[5-chloro-3-(2,2-difluoroethoxy)-2-pyridyl]oxy]-8-methyl-N-(4-methyl-1,1-dioxo-thian-4-yl)imidazo[1,2-b]pyridazine-2-carboxamide] came in with a concentration for half-maximal inhibition (IC50) of 11 nM.
With `Cc1cc(Oc2ncc(F)cc2OCC(F)F)nn2cc(C(=O)N[C@H]3CCCC(F)(F)[C@@H]3O)nc12` [Example 174, N-((1S,2R)-3,3-difluoro-2-hydroxycyclohexyl)-6-((3-(2,2-difluoroethoxy)-5-fluoropyridin-2-yl)oxy)-8-methylimidazo[1,2-b]pyridazine-2-carboxamide] the figure was 14 nM; with `CC1(NC(=O)c2nc3cc(Cl)c(Oc4ncc(Cl)cc4OCC(F)F)nn3c2Cl)CS(=O)(=O)C1` [Example 175, 3,7-dichloro-6-[[5-chloro-3-(2,2-difluoroethoxy)-2-pyridyl]oxy]-N-(3-methyl-1,1-dioxo-thietan-3-yl)imidazo[1,2-b]pyridazine-2-carboxamide], 0.4 nM.
With `CC1(NC(=O)c2nc3ccc(Oc4ncc(Cl)cc4OCC(F)F)nn3c2Cl)CS(=O)(=O)C1` [Example 176, 3-chloro-6-[[5-chloro-3-(2,2-difluoroethoxy)-2-pyridyl]oxy]-N-(3-methyl-1,1-dioxo-thietan-3-yl)imidazo[1,2-b]pyridazine-2-carboxamide] the figure was 24 nM.
With `CC1(NC(=O)c2nc3cc(Cl)c(Oc4nccnc4OCC(F)(F)F)nn3c2Cl)CCS(=O)(=O)CC1` [Example 177, 3,7-dichloro-N-(4-methyl-1,1-dioxo-thian-4-yl)-6-[3-(2,2,2-trifluoroethoxy)pyrazin-2-yl]oxy-imidazo[1,2-b]pyridazine-2-carboxamide] the figure was 391 nM; with `CC1(NC(=O)c2nc3ccc(Oc4nccnc4OCC(F)(F)F)nn3c2Cl)CCS(=O)(=O)CC1` [Example 178, 3-chloro-N-(4-methyl-1,1-dioxo-thian-4-yl)-6-[3-(2,2,2-trifluoroethoxy)pyrazin-2-yl]oxy-imidazo[1,2-b]pyridazine-2-carboxamide], 4000 nM.
`CC1(NC(=O)c2nc3cc(Cl)c(Oc4ncc(Cl)cc4OCC(F)(F)F)nn3c2Cl)CS(=O)(=O)C1` [Example 179, 3,7-dichloro-6-[[5-chloro-3-(2,2,2-trifluoroethoxy)-2-pyridyl]oxy]-N-(3-methyl-1,1-dioxo-thietan-3-yl)imidazo[1,2-b]pyridazine-2-carboxamide]: the IC50 amounted to 101 nM.
With `CC1(NC(=O)c2cn3nc(OCc4ncc(Cl)cc4OCC(F)F)ccc3n2)CCS(=O)(=O)CC1` [Example 180, 6-((5-Chloro-3-(2,2-difluoroethoxy)pyridin-2-yl)methoxy)-N-(4-methyl-1,1-dioxidotetrahydro-2H-thiopyran-4-yl)imidazo[1,2-b]pyridazine-2-carboxamide] the figure was 53 nM; with `CC1(NC(=O)c2cn3nc(OCc4c(F)cccc4OC(F)F)ccc3n2)CCS(=O)(=O)CC1` [Example 181, 6-[[2-(Difluoromethoxy)-6-fluoro-phenyl]methoxy]-N-(4-methyl-1,1-dioxo-thian-4-yl)imidazo[1,2-b]pyridazine-2-carboxamide], 25 nM.
Under `CC1(NC(=O)c2cn3nc(OCc4ncc(F)cc4OCC(F)(F)F)ccc3n2)CCS(=O)(=O)CC1` [Example 182, 6-[[5-Fluoro-3-(2,2,2-trifluoroethoxy)-2-pyridyl]methoxy]-N-(4-methyl-1,1-dioxo-thian-4-yl)imidazo[1,2-b]pyridazine-2-carboxamide] stands 11 nM; under `Cc1cn(C)nc1COc1ccc2nc(C(=O)NC3(C)CCS(=O)(=O)CC3)cn2n1` [Example 183, 6-((1,4-dimethyl-1H-pyrazol-3-yl)methoxy)-N-(4-methyl-1,1-dioxidotetrahydro-2H-thiopyran-4-yl)imidazo[1,2-b]pyridazine-2-carboxamide], 808 nM; under `CCOc1ccccc1Oc1ccc2nc(C(=O)N[C@H]3CCOC3)cn2c1` [Example 184, (S)-6-(2-ethoxyphenoxy)-N-(tetrahydrofuran-3-yl)imidazo[1,2-a]pyridine-2-carboxamide], 6340 nM.
For the molecule `CC1(NC(=O)c2cn3cc(Oc4ncc(Cl)cc4OCC(F)(F)F)cnc3n2)CCS(=O)(=O)CC1` [Example 186, 6-((5-Chloro-3-(2,2,2-trifluoroethoxy)pyridin-2-yl)oxy)-N-(4-methyl-1,1-dioxidotetrahydro-2H-thiopyran-4-yl)imidazo[1,2-a]pyrimidine-2-carboxamide], the 50% inhibitory concentration (IC50) was found to be 33 nM.
